Reference: publication PMC3753754, “Andrographis paniculata Extract and Andrographolide Modulate the Hepatic Drug Metabolism System and Plasma Tolbutamide Concentrations in Rats” (Evidence-based Complementary and Alternative Medicine : eCAM, 2013)
Marks after values point to notes of the source that are not given here.

Legend:
[1] = system: CYP4A; assay: Lauric acid 12-hydroxylation in liver microsomes of treated rats; type: in vivo; conditions: rat liver microsomes; oral 2 g/kg APE or 50 mg/kg AND daily for 5 days
Protocol: Liver was homogenized (1 : 4, w/v) in an ice-cold potassium phosphate buffer (pH 7.4) containing 7.4 mM K2HPO4, 2.6 mM KH2PO4, 1.15% KCl, and 1 mM phenylmethylsulfonyl fluoride (PMSF). Tissue homogenates were centrifuged at 10,000 ×g for 30 min at 4°C. The resulting supernatant was then centrifuged at 105,000 ×g for 1 h at 4°C. The microsomes thus obtained were washed several times to get rid of possible tolbutamide contamination and this can avoid tolbutamide interference of CYP activity, and the microsomes were then suspended in potassium phosphate buffer (pH 7.7) containing 7.5 mM K2HPO4, 14.5 mM KH2PO4, and 1 mM EDTA. […] Metabolites of each CYP enzyme reaction were determined by LC/MS as reported previously. The contents of total CYP and cytochrome b5 were quantified by the method of Omura and Sato [29]. Enzyme activity is expressed as picomoles of metabolite formed per minute per milligram of protein. The NADPH-CYP reductase activity was measured as described by Phillips and Langdon with the use of cytochrome c as the substrate. The microsomal protein concentration was determined by using a Coomassie Plus protein assay kit (Pierce, Rockford, IL, USA).

[2] = system: CYP1A1, CYP1A2, CYP2C6, CYP2C11, and CYP3A2; assay: RT-PCR of hepatic CYP isozyme mRNA in treated rats; type: in vivo; conditions: rat liver, APE or andrographolide for 5 days
Source text: Total RNA in liver samples was extracted by using the Trizol reagent (1 : 20, w/v). […] The sequences for the PCR primers were as follows: for CYP1A1 (forward: 5′-[…]-3′; reverse: 5′-[…]-3′), CYP1A2 (forward: 5′-[…]-3′; reverse: 5′-[…]-3′), CYP2C6 (forward: 5′-[…]-3′; reverse: 5′-[…]-3′), CYP2C11 (forward: 5′-[…]-3′; reverse: 5′-[…]-3′), CYP2D1 (forward: 5′-[…]-3′; reverse: 5′-[…]-3′), CYP2E1 (forward: 5′-[…]-3′; reverse: 5′-[…]-3′), CYP3A1 (forward: 5′-[…]-3′; reverse: 5′-[…]-3′), CYP3A2 (forward: 5′-[…]-3′; reverse: 5′-[…]-3′), and P-glycoprotein (forward: 5′-[…]-3′; reverse: 5′-[…]-3′). The PCR for CYP1A1 was performed as follows: 5 min at 95°C and then 35 cycles of 30 s at 94°C, 30 s at 54°C, and 60 s at 72°C. For CYP1A2 and CYP3A2 amplification, the PCR cycle number was 30 times through a 30 s denaturing step at 94°C, a 30 s annealing step at 55°C, and a 30 s elongation step at 72°C. For CYP2D1 and CYP3A1, the PCR cycle number was 30 times through a 60 s denaturing step at 94°C, a 60 s annealing step at 56°C, and a 125 s elongation step at 72°C. […] The PCR amplicons were then electrophoresed in 1% agarose gels containing 40 mM Tris/20 mM glacial acetic acid/2 mM EDTA buffer, and the relative densities of the PCR products were quantitated by use of Image Gauge software (Fujifilm, Tokyo, Japan). […]

[3] = Glucose tolerance test after tolbutamide in high-fat diet-induced obese mice; type: in vivo, C57BL/6 mice
Protocol: Eleven-month-old high-fat diet-fed (45% of energy from fat; Research Diet Inc., New Brunswick, NJ) C57BL/6 mice were obtained from the National Health Research Institute (Miaoli, Taiwan). Control mice were orally administered 0.5% methyl cellulose (10 mL/kg). […] After the 5th daily dose, the mice were deprived of food overnight. On day 6, a 20 mg/kg oral dose of tolbutamide, as a solution in Cremophor EL/ethanol/water (30/10/60, v/v/v), was administered to each mouse. Thirty minutes later, a 1 g/kg dose of glucose, as a solution in water, was administered orally according to the method described by Zong et al.. Serial blood samples were collected up to 8 h after the glucose dose from each mouse. The animals were then killed by exsanguination and the livers collected.
Plasma glucose was determined by use of enzymatic kits purchased from Audit Diagnostics Co. (Cork, Ireland). Plasma aspartate aminotransferase (AST) and alanine aminotransferase (ALT) activities were measured by using commercial kits purchased from Randox Laboratories (Antrim, UK).

[4] = obese mice, 2 g/kg APE or 50 mg/kg AND for 5 days, day 6 tolbutamide 20 mg/kg oral, 30 min later glucose 1 g/kg oral

C=C1CC[C@@H]2[C@](C)(CO)[C@H](O)CC[C@@]2(C)[C@@H]1C/C=C1/C(=O)OC[C@H]1O [andrographolide, Andrographolide]
Lauric acid 12-hydroxylase (4A) [1]: 214 ± 88 pmol/min/mg protein
mRNA levels of CYP1A1, CYP1A2, CYP2C6, CYP2C11, and CYP3A2 [2]: induced
Hypoglycemic effect of tolbutamide in a glucose tolerance test ([3]; high-fat diet-induced obese mice treated with APE or andrographolide): not changed
Plasma glucose, time 0 h [3, 4]: 80 ± 7^a mg/dL
Plasma glucose, time 0.25 h [3, 4]: 152 ± 37^a mg/dL
Plasma glucose, time 0.5 h [3, 4]: 124 ± 28^ab mg/dL
Plasma glucose, time 1 h [3, 4]: 99 ± 29 mg/dL
Plasma glucose, time 2 h [3, 4]: 88 ± 28 mg/dL
Plasma glucose, time 4 h [3, 4]: 76 ± 17^a mg/dL
Plasma glucose, time 8 h [3, 4]: 80 ± 17^a mg/dL
Fasting blood glucose level ([3]; obese mice, APE or andrographolide for 5 days, fasted overnight): 80 ± 7 mg/dL
Area under the plasma glucose concentration versus time curve (AUC0–8 h) ([3]; obese mice, APE or andrographolide for 5 days, then tolbutamide and glucose load): 171 ± 42 mg·h/dL
